This note sets out measurements from patent US12146871B2, “Method and device for physicochemical characterization of materials” (THE SOLUBILITY COMPANY OY, priority 2016, dated 2024).

Molecules are shown by their SMILES.

This data set in a line: partition coefficient from intrinsic solubility in octanol and water by image analysis of individual crystals. It is filed as physicochemical. The note with it: octanol and water (separate solubilities); from aqueous solubility of the unionized form (pH 2-3) and solubility in octanol. The method, then:
A solubility-pH profile was performed in aqueous buffers over the physiologically relevant range of pH 2-9. […] Additionally, using logP, pKa and pH data, the logD value was determined as a function of pH. All parameters determined using the present method correlated with theory and literature data. Thus, by only observing and characterizing one variable, i.e. the particle(s) size decrease of an individual crystal, it is possible to mine, in a high-content analysis (HCA) manner, a full physicochemical profile of six fundamental material characteristics for a material. Analysis device was constructed as a flow-through device consisting of two resistant flat metal plates. In the lower thereof a 1 mm hole was drilled as an outlet channel. The top metal plate hosted the inlet channel and was prepared with a glass window to facilitate detecting. A 0.2 μm inorganic membrane filter (Whatman nuclepore) was placed on the bottom plate and the particle(s) to be analyzed placed on top of the portion of the membrane filter being above the outlet channel. […] Equilibrium solubility, S was calculated from image analysis data based on a reorganized single-particle diffusion layer model dissolution rate equation, where S0 is the intrinsic solubility of the unionized form. Further, based on intrinsic solubility data in octanol and water the partition coefficient (logP) was determined according to, […]

Take `COc1ccc2c(c1)c(CC(=O)O)c(C)n2C(=O)c1ccc(Cl)cc1` [indomethacin]: the logP was 4.1.

For orientation: logP means a log measure of how a compound divides between an organic and an aqueous phase.
